Data as given in ChEMBL document CHEMBL5365422 (Bioorg Med Chem Lett, 2023).
In brackets after ≈: the same amount, converted by molar mass. Activity calls are given as the source filed them. The rule behind the calls is not given here.

Columns and labels:
[1] = Solubility of the compound in PBS buffer by UV spectrum based solubility assay; type: physicochemical
[2] = Stability of compound in human plasma assessed as drug degradation at 37 degC measured after 90 mins by LC-MS analysis; type: ADME, cell-free; conditions: read-out: Drug degradation
[3] = target: T1, Polyunsaturated fatty acid 5-lipoxygenase (Homo sapiens) (UniProt P09917); assay: Binding affinity to 5-LOX (unknown origin)
T1 sequence (whole entry): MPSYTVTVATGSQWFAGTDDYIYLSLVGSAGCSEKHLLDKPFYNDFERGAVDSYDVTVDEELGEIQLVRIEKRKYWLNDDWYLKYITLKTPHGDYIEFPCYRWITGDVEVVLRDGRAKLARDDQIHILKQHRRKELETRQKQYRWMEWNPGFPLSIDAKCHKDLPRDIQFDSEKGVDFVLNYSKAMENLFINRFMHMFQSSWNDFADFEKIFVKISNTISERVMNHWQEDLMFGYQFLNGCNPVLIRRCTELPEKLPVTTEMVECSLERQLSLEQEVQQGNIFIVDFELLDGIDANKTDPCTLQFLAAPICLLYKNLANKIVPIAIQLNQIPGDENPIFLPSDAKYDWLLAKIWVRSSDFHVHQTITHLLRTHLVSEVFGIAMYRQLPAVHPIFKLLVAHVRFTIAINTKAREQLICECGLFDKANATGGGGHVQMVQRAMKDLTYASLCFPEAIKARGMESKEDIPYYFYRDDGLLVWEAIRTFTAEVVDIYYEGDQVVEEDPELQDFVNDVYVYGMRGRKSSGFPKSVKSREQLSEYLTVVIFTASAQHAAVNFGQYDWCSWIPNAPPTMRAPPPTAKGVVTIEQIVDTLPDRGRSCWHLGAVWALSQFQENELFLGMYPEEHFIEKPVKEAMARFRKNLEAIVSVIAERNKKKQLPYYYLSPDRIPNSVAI

[4] = target: T2, Polyunsaturated fatty acid 5-lipoxygenase (Homo sapiens, UniProt P09917); assay: Inhibition of 5-LOX (unknown orgin) using arachidonic acid as substrate incubated for 10 mins by colorimetric assay
T2 sequence (P09917 whole entry): T1 sequence (whole entry)

Albumin = Albumin (Homo sapiens, UniProt P02768); assay: Binding affinity to human serum albumin in phosphate buffer at pH 7.4 incubated at 298 K
Albumin, sequence (P02768 whole entry): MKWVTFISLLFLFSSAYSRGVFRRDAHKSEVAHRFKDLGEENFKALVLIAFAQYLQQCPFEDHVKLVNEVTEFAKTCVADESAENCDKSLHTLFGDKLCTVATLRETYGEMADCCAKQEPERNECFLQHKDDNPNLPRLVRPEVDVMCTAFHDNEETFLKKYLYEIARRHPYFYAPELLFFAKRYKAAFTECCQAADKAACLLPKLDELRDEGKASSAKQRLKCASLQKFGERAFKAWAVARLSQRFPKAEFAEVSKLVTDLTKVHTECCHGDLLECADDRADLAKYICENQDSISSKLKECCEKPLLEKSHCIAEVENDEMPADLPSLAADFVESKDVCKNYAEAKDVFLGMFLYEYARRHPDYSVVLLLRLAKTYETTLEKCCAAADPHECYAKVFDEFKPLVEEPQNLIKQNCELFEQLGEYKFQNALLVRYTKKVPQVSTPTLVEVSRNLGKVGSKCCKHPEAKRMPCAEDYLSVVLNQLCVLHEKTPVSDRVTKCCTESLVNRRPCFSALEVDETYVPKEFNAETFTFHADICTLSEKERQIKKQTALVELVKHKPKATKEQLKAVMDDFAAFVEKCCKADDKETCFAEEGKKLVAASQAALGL

[5] = tested on: Panel NCI-60 (60 carcinoma cell lines); assay: Cytotoxicity against human Panel NCI-60 (60 carcinoma cell lines) cells assessed as reduction in cell viability; type: functional
[6] = Half life in human liver microsome by LC-MS/MS analysis; type: ADME; conditions: liver microsomes
[7] = target: T1, Polyunsaturated fatty acid 5-lipoxygenase (Homo sapiens); assay: Competitive inhibition of 5-LOX (unknown origin) using arachidonic acid as substrate by Michaelis-Menten equation based kinetic analysis

SMILES	solubility [1] [µM]	metabolised at 1.5 h [2] [%]	K [3]	IC50 [4] [nM]	K (Albumin)	LC50 (concentration killing 50% of cells) [5] [nM]	half-life [6] [h]	inhibition [7]
O=C1C(Cc2ccc[nH]2)c2ccccc2N1c1c(Cl)cccc1Cl (stereo not drawn)	26 (≈ 9.29 µg/mL)	4	1.1 10^8/M	30	3.8 10^4/M	> 100000	1.5	Active
C=CCn1cccc1CC1C(=O)N(c2c(Cl)cccc2Cl)c2ccccc21 (stereo not drawn)	–	4	1.4 10^8/M	1770	1.7 10^4/M	> 100000	–	–
O=C(O)Cn1cccc1Cc1c(O)n(-c2c(Cl)cccc2Cl)c2ccccc12	–	4	4.9 10^8/M	430	1.4 10^4/M	> 100000	–	–
C=CCn1cc(Cc2c(O)n(-c3c(Cl)cccc3Cl)c3ccccc23)c2ccccc21	–	4	1.8 10^8/M	70	7.6 10^2/M	> 100000	–	–
O=C1C(Cc2cccn2Cc2ccccc2)c2ccccc2N1c1c(Cl)cccc1Cl (stereo not drawn)	–	4	2.4 10^8/M	490	1.2 10^4/M	> 100000	–	–
C#CCn1cccc1CC1c2ccccc2N(c2c(Cl)cccc2Cl)C1O (stereo not drawn)	–	4	0.9 10^8/M	250	4.1 10^4/M	> 100000	–	–
COc1cc(CC2C(=O)N(c3c(Cl)cccc3Cl)c3ccccc32)cc(OC)c1OC (stereo not drawn)	–	4	0.9 10^8/M	260	6.9 10^4/M	> 100000	–	–
CCOC(=O)Cn1cccc1CC1c2ccccc2N(c2c(Cl)cccc2Cl)C1O (stereo not drawn)	–	4	1.7 10^8/M	1310	1.4 10^4/M	> 100000	–	–
O=C1C(Cc2c[nH]c3ccccc23)c2ccccc2N1c1c(Cl)cccc1Cl (stereo not drawn)	–	4	4.2 10^8/M	310	1.1 10^3/M	> 100000	–	–
CCOC(=O)Cn1cc(Cc2c(O)n(-c3c(Cl)cccc3Cl)c3ccccc23)c2ccccc21	–	4	4.5 10^8/M	630	2.7 10^3/M	> 100000	–	–
Oc1c(Cc2cn(Cc3ccccc3)c3ccccc23)c2ccccc2n1-c1c(Cl)cccc1Cl	–	4	0.8 10^8/M	100	1.4 10^4/M	> 100000	–	–
C#CCn1cc(Cc2c(O)n(-c3c(Cl)cccc3Cl)c3ccccc23)c2ccccc21	–	4	3.1 10^8/M	> 10000	1.1 10^4/M	> 100000	–	–
O=C(O)Cn1cc(Cc2c(O)n(-c3c(Cl)cccc3Cl)c3ccccc23)c2ccccc21	–	4	2.5 10^8/M	1230	5.2 10^4/M	> 100000	–	–
